According to US20230065158A1, “OXABICYCLOHEPTANES FOR TREATMENT OF SMALL CELL LUNG CANCER” (Lixte Biotechnology, Inc., priority 2021, published 2023):
pIC50: −log10 of the molar value.

Experiments:
H82 cells = assay: Cell Counting Kit-8 cytotoxicity, H82; details: read-out: Cytotoxicity IC50; H82; 72 hours
From the text: To determine specific cytotoxicity, we used Cell Counting Kit-8 (Dojindo Molecular Technologies, Rockville, Md.) as previously described (50).

H69 cells = assay: Glucose uptake assay (glucose oxidase); type: cell-based; details: LB-100 20 μM, compared with control without cells
From the text: FIGS. 4A-4F depict a reactome pathway analysis of PamGene PTKs and STKs after LB-100 treatment of H524 cells and Biolog phenotype MicroArray. […] Table includes 10 carbon sources affected by LB-100 (n=3). […] P<0.001 (***) for control (untreated cells) vs. LB-100. FIG. 4D: Amplex Red Glucose/Oxidase assay kit was used to measure glucose level in cell culture media. […] Glucose concentration detected in initial medium and counted as 100%. Subtracting final medium level of glucose from initial glucose medium concentration yielded % glucose in the medium with cells (n=3). Effect of LB-100 on MET phosphorylation. FIG. 4E: H524 and H69 cells were treated overnight with LB-100 (H524—5 μM and H69—20 μM) following by stimulation with 100 ng/ml HGF in 10 min. Cells were collected and lysed for WB analysis with pMET and total MET antibody. Pan-actin was used as loading control (n=3). FIG. 4F: H524 cell lysates (control, LB-100, carboplatin and combination (LB-100/carboplatin) were analyzed by western blots to check phosphorylation status of MET at Ser985 and Tyr1234/1235. Actin was used as a loading control (n=3). […]
Glucose consumption was determined by using a colorimetric glucose assay (Invitrogen, Carlsbad, Calif.) following the manufacturer's instructions. […] The uptake of glucose was determined compared with initial glucose concentration in the cell culture medium, which was taken as 100%.

H524 and H69 cells = assay: Whole cell Pt accumulation, ICP-MS; type: cell-based; details: LB100 pretreatment then carboplatin 4 hours, versus carboplatin alone
Protocol: FIGS. 3A-3H depict SCLC cell invasion through HUVEC monolayer. FIGS. 3A-3D: Graphical representation of H524/H69 cell ability to disrupt a confluent HUVEC monolayer using an electrical substrate-impedance sensing system. Arrows indicate time point when cells were added. Inserts show mean values and SD for each group after 20 h of drug treatment. After treatment, cell viability was counted using an Auto T4 Cell Counter (Nexcelom Cellometer). Cell viability was 90-95% for drug-treated groups (n=2). p<0.001 (***) for control (untreated cells) vs. drug combination (LB100/carboplatin). Whole cell Pt accumulation. Graphical representation of LB-100 effect on platinum uptake by SCLC cells. […]
To this end, platinum (Pt) levels were measured in H524 and H69 cells using Inductively Coupled Plasma Mass Spectrometry (ICP-MS). […]
Samples were prepared and analyzed for Pt concentrations at the Isotoparium (California Institute of Technology), using precleaned Teflon beakers (PFA), Optima grade reagents (Fisher Chemical) and 18.2 MΩ Milli-Q water. […] All samples were analyzed using an iCAP RQ (ThermoFisher, Waltham, Mass.) ICP-MS and an SC-2 DX autosampler (Elemental Scientific, Omaha, Nebr.). […] A Pt standard curve (0.001, 0.01, 0.1, 1.0 ppb, Spex Certiprep Assurance, Lot #24-140PTM) was created using the HNO3 stock solution and measured for sample calibration. […]

Row | SMILES | pIC50 (H82 cells) | reduction of consumption of glucose in media (H69 cells) [%] | Pt level in cells (H524 and H69 cells)
1 | N.N.O=C([O-])C1(C(=O)[O-])CCC1.[Pt+2] [Carboplatin, reference compound] | 4.33 | – | –
2 | C[NH+]1CCN(C(=O)C2C(C(=O)O)[C@H]3CC[C@@H]2O3)CC1 (stereo in doubt) [LB-100, 3-[(4-Methylpiperazin-1-yl)carbonyl]-7-oxabicyclo[2.2.1]heptane-2-carboxylic acid] | – | 65 | enhanced the uptake of Pt
